The subject of series [1] is Staphylococcus aureus (OC8525), a methicillin-resistant strain (MRSA). Description: In vivo efficacy in a mouse systemic infection model. The conditions noted are these: mouse MRSA systemic infection. In outline: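 Female Swiss Webster mice infected i.p. with ~5×10^5 CFU MRSA OC8525 in 7% mucin; compound in D5W given i.v. or p.o. 1 h later, 8 mice/group. Survival over 3 days; ED50 from survival curves, normalized to parent-acid content, or % survival at a single dose.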

A further series can be described thus: Rat pharmacokinetics. It is filed as in vivo, Sprague-Dawley rats. The conditions noted are these: Sprague-Dawley, iv, male rats, 2 mg/kg i.v., analyte: the administered compound itself. The method, then: Male Sprague-Dawley rats (n=4) were fasted overnight, then dosed intravenously (IV) with a 1 mg/mL solution of a compound of the present invention (prodrug) or parent (compound of formula (M)) in 20% hydroxypropyl-β-cyclodextrin at 2 mg/kg. Blood samples were collected up to 24 hours post dose into tubes containing an anticoagulant. Blood samples were centrifuged for cell removal, and 100 μL plasma was transferred to a clean vial, placed on dry ice, and stored in a −70° C. freezer prior to analysis.
Plasma samples were prepared as follows. Two volumes of acetonitrile containing formic acid and internal standard were added to one volume of plasma to precipitate proteins. Samples were centrifuged (3000 g for 5 min) and supernatant removed for analysis by LC-MS-MS. Calibration standards were prepared by adding appropriate volumes of stock solution directly into plasma and treated identically to collected plasma samples. LC-MS-MS analysis was performed utilizing multiple reaction monitoring for detection of characteristic ions for the test compounds (pro-drugs), parent (compound of formula (M)) and internal standard.
Plasma concentrations were measured as described above to determine a concentration vs time profile. The area under the plasma concentration vs time curve (AUC) was calculated using the linear trapezoidal method. Fitting of the data to obtain pharmacokinetic parameters was carried out using non-compartmental analysis, with results as listed in Table 14, below. The term “NA” means the data was not available.

The nature of series [2]: Solubility of parent compound in citrate buffer (HPLC). It is filed as physicochemical. The conditions noted are these: aqueous buffer, thermodynamic from solid, 50 mM citrate buffer. The method, then: The solubility of the parent compound (the compound of formula (M), also known as ((E)-7-(3-(2-amino-1-fluoroethylidene)piperidin-1-yl)-1-cyclopropyl-6-fluoro-8-methoxy-4-oxo-1,4-dihydroquinoline-3-carboxylic acid), was determined in a separate experiment, in which solutions containing 50 mM citrate buffer at various pH were added to the solid compound at various target concentrations. The samples were mixed overnight and the pH measured with a Beckman φ360 pH/Temp/mV Meter. The samples were then filtered using nylon centrifuge filters. The supernatant was diluted and the concentration was measured with HPLC.

≈ marks a conversion by molar mass, not a printed value.

What is called ED50 is the midpoint of the dose-response relation. In general, AUC refers to the area under the concentration-time curve, a measure of exposure. A high value points to more exposure. A word on the Cmax: it is the peak of the concentration-time curve. A word on the clearance: it is the volume of plasma or blood freed of the substance per unit of time. Read a low clearance as inefficient removal. One may read the half-life as the time in which the quantity being followed falls by half. High values mean slow loss, low ones fast loss. Usually solubility stands for how much of the substance goes into solution per volume.

In series [1] (administered i.v.), `COc1c(N2CCC/C(=C(\F)CN)C2)c(F)cc2c(=O)c(C(=O)O)cn(C3CC3)c12` [Compound (M), (E)-7-(3-(2-amino-1-fluoroethylidene)piperidin-1-yl)-1-cyclopropyl-6-fluoro-8-methoxy-4-oxo-1,4-dihydroquinoline-3-carboxylic acid] showed an ED50 of 0.71 mg/kg/day. The molecule also had an ED50 in series [1] (administered p.o.) of 10.6 mg/kg/day. In the series “Rat pharmacokinetics” (in vivo), this molecule gave an AUC of 718 ng·h/mL, a Cmax of 805 ng/mL and a clearance of 47.1 mL/min/kg. Also, the Vd in “Rat pharmacokinetics” (in vivo, read-out: Vss) was determined as 6.08 L/kg. This molecule also gave a half-life in “Rat pharmacokinetics” (plasma) of 1.5 h. Further, the solubility in series [2] (pH 4.11, mixed overnight) is 140 µg/mL (≈ 334 µM). Also, the solubility in series [2] (pH 6.75, mixed overnight) stood at 40 µg/mL (≈ 95.4 µM).
